Like-named read-outs stand apart in the source and are kept apart here. Where a SMILES comes first, the peptide text is derived from it. [ ]: non-standard residue; d: D form. The star is where a group is joined. DOTA = O=C(O)CN1CCN(CC(=O)O)CCN(CC(=O)*)CCN(CC(=O)O)CC1; 1Nal = N[C@@H](Cc1cccc2ccccc12)C(=O)O; NMeNle = CCCC[C@H](NC)C(=O)O
What was measured:
[1] = Distribution coefficient (LogD) in octanol/PBS; assay type: physicochemical; conditions: radiolabeled peptide (111In-labeled where the label names no radiometal), shake-flask octanol/PBS, 100 pmol/mL, 15 min shaking at 1500 rpm, γ-counter, mean ± SD, n = 8
Description: The distribution coefficient (LogD) in octanol/PBS was determined by mixing 0.5 mL of the radiolabeled DOTA peptides diluted in PBS (100 pmol/mL) and 0.5 mL octanol in a 1.5 mL microcentrifuge tube (n = 8). After shaking for 15 min (MS3 Basic, IKA, Staufen, Germany) at 1500 rpm and a waiting time of 10 min to ensure appropriate separation of the two phases, 100 µL aliquots of each phase were pipetted into 4.5 mL tubes. The tubes were measured using a γ-counter (2480 Wizard2 3″, PerkinElmer Life Sciences and Analytical Instruments, formerly Wallac Oy, Turku, Finland) and the LogD value was determined using following equation: LogD=Log(cpmoctanol phase/cpmPBS phase)

[2] = Binding to serum proteins (incubation in human serum, Sephadex G-50 size exclusion chromatography); assay type: in vitro ADME; conditions: radiolabeled peptide (111In where no radiometal named), 37 °C, 24 h after incubation, Sephadex G-50, γ-counter, n = 2; for Binding to Serum Proteins (%): 500 pmol/mL
Description: Protein binding was determined by incubation of the radiolabeled peptides in human serum at 37 °C (500 pmol/mL, n = 2). For the time points of 1, 4, and 24 h after incubation, samples of 25 µL were subjected to Sephadex G-50 size exclusion chromatography (GE Healthcare Illustra, Little Chalfont, UK). The column and the eluate were measured using the γ-counter and the percentage of protein binding was calculated.

[3] = In vitro stability in human serum (intact radiopeptide by radio-HPLC); assay type: in vitro ADME; conditions: radiolabeled peptide (111In where no radiometal named), fresh human serum, 37 °C, 24 h after incubation, n = 2; for Intact Radiopeptide in Human Serum (%): 1000 pmol/mL
Description: In vitro stability studies were performed in human serum (n = 2). The radiolabeled peptides (1000 pmol/mL) were incubated at 37 °C and a sample of 100 μL was taken at 1, 4, and 24 h after incubation. After the precipitation of proteins with ACN at 1:1.5 (v/v), centrifugation (14,000 rpm, 2 min, centrifuge 5424, Eppendorf AG, Germany) and dilution with water at 1:1 (v/v), an aliquot of 100 μL of this solution was analyzed by HPLC. Radioligand breakdown was monitored and the percentage of intact radiopeptide was calculated using Chromeleon Dionex Software (Version 7.2.9.11323). Additionally, the radiolabeled peptides (1000 pmol/mL) were incubated in PBS (n = 1) at room temperature to confirm the complex stability as a control.

[4] = Biodistribution in BALB/c nude mice bearing A431-CCK2R/A431-mock xenografts; assay type: in vivo; conditions: female, athymic BALB/c nude, mouse, iv, 20 pmol, total radioactivity, ~20 pmol, 4 h p.i. (indium-111 or lutetium-177), mean ± SD n = 4; for tissue to tissue ratio at 4 h: BALB/c nude mice; for tissue uptake at 4 h: xenografted BALB/c nude mice, i.v.
Description: The overall biodistribution and tumor targeting properties of selected radiolabeled peptides were evaluated in female athymic BALB/c nude mice (Charles River, Sulzfeld, Germany, age of 7 to 9 weeks). After tumor induction with 2 × 10^6 A431-CCK2R or A431-mock cells (subcutaneously injected in 200 μL DMEM into the right and left flank) and a waiting period of 10–14 days (sufficient to achieve tumors of ∼0.25 g), mice were randomly divided into groups of four and treated with a bolus injection of 150 µL of the injectable solution containing the radiolabeled peptide via a lateral tail vein to achieve an injected radioactivity of 150–200 kBq and a total injected peptide amount of ~20 pmol (n = 4 for each radiopeptide). For DOTA-[(N-Me)1Nal^8]MGS5, additional biodistribution studies were performed with gallium-68 (~0.5 MBq, 20 pmol) and lutetium-177 (~0.5 MBq, 20 pmol). The animals were euthanatized by cervical dislocation at 1 h (gallium-68) or 4 h p.i. (indium-111/ lutetium-177). The tumors and other tissues (blood, lung, heart, muscle, spleen, intestine, liver, kidney, stomach, and pancreas) were dissected, weighed, and the radioactivity measured in the γ-counter. The rest of the body and a standard of the solution injected was also measured together with the collected samples. The percentage of injected activity per gram of tissue (% IA/g) and the tumor-to-organ activity ratio of selected tissues were calculated for each mouse and time point studied. Origin software (Microcal Origin 6.1, Northampton, MA, USA) was used for statistical analysis (independent t-test for two populations; significance level p < 0.05).

[5] = A431-CCK2R xenograft / blood, A431-CCK2R xenograft, read-out: tumor-to-organ ratio: blood
[6] = A431-CCK2R xenograft / stomach, A431-CCK2R xenograft, read-out: tumor-to-organ ratio: stomach
[7] = A431-CCK2R xenograft, read-out: Uptake in A431-CCK2R xenograft
[8] = A431-mock xenograft, read-out: Uptake in A431-mock xenograft
[9] = blood, read-out: Uptake in blood
[10] = heart, read-out: Uptake in heart
[11] = intestine, read-out: Uptake in intestine
[12] = kidneys, read-out: Uptake in kidneys
[13] = liver, read-out: Uptake in liver
[14] = muscle, read-out: Uptake in muscle
[15] = pancreas, read-out: Uptake in pancreas
[16] = spleen, read-out: Uptake in spleen
[17] = stomach, read-out: Uptake in stomach
[18] = A431-CCK2R xenograft / kidney, A431-CCK2R xenograft, read-out: tumor-to-organ ratio: kidney

LogD [1]	Binding to Serum Proteins (%) [2] [%]	Intact Radiopeptide in Human Serum (%) [3] [%]	LogD ([1]; read-out: LogD)	tissue to tissue ratio at 4 h [4, 5]	tissue to tissue ratio at 4 h [4, 6]	tissue uptake at 4 h [4, 7] [%ID/g]	tissue uptake at 4 h [4, 8] [%ID/g]	tissue uptake at 4 h [4, 9] [%ID/g]	tissue uptake at 4 h [4, 10] [%ID/g]	tissue uptake at 4 h [4, 11] [%ID/g]	tissue uptake at 4 h [4, 12] [%ID/g]	tissue uptake at 4 h [4, 13] [%ID/g]	tissue uptake at 4 h ([4]; lung, read-out: Uptake in lung) [%ID/g]	tissue uptake at 4 h [4, 14] [%ID/g]	tissue uptake at 4 h [4, 15] [%ID/g]	tissue uptake at 4 h [4, 16] [%ID/g]	tissue uptake at 4 h [4, 17] [%ID/g]	tissue to tissue ratio at 4 h [4, 18]	SMILES	other results
−2.3 ± 0.2	40.9 ± 3.1	98.1 ± 0.4																	CCCC[C@@H](C(=O)N[C@@H](CC(=O)O)C(=O)N[C@@H](Cc1cccc2ccccc12)C(=O)NC)N(C)C(=O)[C@H](Cc1c[nH]c2ccccc12)NC(=O)CNC(=O)[C@H](Cc1ccc(O)cc1)NC(=O)[C@H](C)NC(=O)[C@@H](CCC(=O)O)NC(=O)CN1CCN(CC(=O)O)CCN(CC(=O)O)CCN(CC(=O)O)CC1 [DOTA-MGS5[NHCH3]]	
−1.7 ± 0.2	34.6 ± 0.3	92.0 ± 1.2																	CCCC[C@@H](C(=O)N[C@@H](CC(=O)O)C(=O)N[C@@H](Cc1ccc2ccccc2c1)C(N)=O)N(C)C(=O)[C@H](Cc1c[nH]c2ccccc12)NC(=O)CNC(=O)[C@H](Cc1ccc(O)cc1)NC(=O)[C@H](C)NC(=O)[C@@H](CCC(=O)O)NC(=O)CN1CCN(CC(=O)O)CCN(CC(=O)O)CCN(CC(=O)O)CC1 [DOTA-[2Nal^8]MGS5]	
			-2.33 ± 0.23	69.9 ± 38.3	4.33 ± 0.56	4.16 ± 1.01	0.19 ± 0.08	0.08 ± 0.07	0.06 ± 0.02	0.59 ± 0.46	4.42 ± 1.15	0.36 ± 0.11	0.07 ± 0.01	0.04 ± 0.02	0.4 ± 0.04	0.13 ± 0.02	0.96 ± 0.17		CCCC[C@@H](C(=O)N[C@@H](CC(=O)O)C(=O)N[C@@H](Cc1cccc2ccccc12)C(=O)NC)N(C)C(=O)[C@H](Cc1c[nH]c2ccccc12)NC(=O)CNC(=O)[C@H](Cc1ccc(O)cc1)NC(=O)[C@H](C)NC(=O)[C@@H](CCC(=O)O)NC(=O)CN1CCN(CC(=O)O)CCN(CC(=O)O)CCN(CC(=O)O)CC1 [[^111In]In-DOTA-MGS5[NHCH3], metal not drawn]	fraction unbound at 24 h, 500 pmol/mL [2]: 0.591
			-1.71 ± 0.19	399 ± 89.6	3.66 ± 0.64	25.4 ± 4.45	0.17 ± 0.04	0.06 ± 0.003	0.08 ± 0.01	0.95 ± 0.26	4.21 ± 0.29	0.66 ± 0.07	0.13 ± 0.03	0.04 ± 0.01	1.84 ± 0.52	0.18 ± 0.05	7.03 ± 1.1	6.04 ± 0.87	CCCC[C@@H](C(=O)N[C@@H](CC(=O)O)C(=O)N[C@@H](Cc1ccc2ccccc2c1)C(N)=O)N(C)C(=O)[C@H](Cc1c[nH]c2ccccc12)NC(=O)CNC(=O)[C@H](Cc1ccc(O)cc1)NC(=O)[C@H](C)NC(=O)[C@@H](CCC(=O)O)NC(=O)CN1CCN(CC(=O)O)CCN(CC(=O)O)CCN(CC(=O)O)CC1 [[^111In]In-DOTA-[2Nal^8]MGS5, metal not drawn]	remaining at 24 h, 1000 pmol/mL [3]: > 90%
			-1.31 ± 0.11	176 ± 31.9	4.69 ± 1.19	33.9 ± 9.53	0.56 ± 0.27	0.2 ± 0.09	0.22 ± 0.06	1.96 ± 0.87	~20	1.94 ± 0.52	0.3 ± 0.11	0.13 ± 0.05	2.27 ± 1.2	0.54 ± 0.12	7.73 ± 3.49	< 2	CCCC[C@@H](C(=O)N[C@@H](CC(=O)O)C(=O)N[C@@H](Cc1cccc2ccccc12)C(N)=O)N(C)C(=O)[C@H](Cc1c[nH]c2ccccc12)NC(=O)CNC(=O)[C@H](Cc1ccc(O)cc1)NC(=O)[C@H](C)NC(=O)[C@@H](CCCCN)NC(=O)CN1CCN(CC(=O)O)CCN(CC(=O)O)CCN(CC(=O)O)CC1 [[^111In]In-DOTA-[DLys^1]MGS5, metal not drawn] ({DOTA}-[dK]AYGW[NMeNle]D[1Nal]-NH2)	
